This is an account of results in patent US6696404B1, “Antibacterial composition having xanthorrizol” (LG Household & Healthcare, priority 1999, dated 2004).

Test [1] has as its system Streptococcus mutans. Briefly: Minimum inhibitory concentration of active fractions. It is filed as cell-based. The protocol: The crude extract, prepared in Example 1-1 was applied to a silica gel column chromatography: the crude extract was applied to a column chromatography(5×43 cm) filled with silica gel(Merck, U.S.A.) of 70 to 230 mesh, and eluted with a mixed gradient of hexane and ethylacetate (10:1→3:1→1:1). Then, thin layer chromatography(TLC) was performed with the active fractions obtained in the course of chromatographic procedure to give 8 different fractions(fractions I to VIII ) with similar retention on the TLC plate. Antibacterial activity of the fractions was measured in terms of minimum inhibitory concentration(MIC), and compared to that of vancomycin.

The nature of test [2]: Antibacterial activity of acetylated single compound. Type of test: cell-based. The conditions noted are these: acetylated form. The protocol:
Since fraction II had some impurities, acetylation of the fraction was carried out to change its polarity as a procedure to obtain a single compound with antibacterial activity: 0.5 g of fraction II was dissolved in 5 ml pyridine, added with 5 ml of acetic anhydride in a drop-wise manner at ice-cold temperature, and stirred at room temperature for more than 15 hours. The reactant was subjected to partition extraction with 100 ml of ice-cold water once, and subsequently 100 ml of ethylacetate twice. The ethylacetate phase thus obtained was washed with 5% HCl, NaHCO3 and NaCl, dehydrated with anhydrous MgSO4, filtered and condensed under a reduced pressure. The resultant was finally applied onto a silica gel column(4.7×50 cm), and eluted with a solvent mixture of hexane and ethylacetate(15:1, v/v) to give an acetylated single compound. […] Then, 2 ml of 5% KOH was added to the compound, reacted with stirring for more than 2 hours, and neutralized using cation exchange resin(DOWEX50WX4-400), followed by filtration and condensation to give a single isolated compound. Thereafter, its molecular weight was measured with EI-MS(VG Platform II, FISIONS, 15 eV), and chemical identification was conducted using analytical instruments of ^1H-NMR, ^13C-NMR(400 MHz, CDCl3) and IR(Perkin Elmer spectrum I , DTGS detector). […]

Values after ≈ are worked out from the molar mass of the structure shown.

Regarding `CN[C@H](CC(C)C)C(=O)N[C@H]1C(=O)N[C@@H](CC(N)=O)C(=O)N[C@H]2C(=O)N[C@H]3C(=O)N[C@H](C(=O)N[C@H](C(=O)O)c4cc(O)cc(O)c4-c4cc3ccc4O)[C@H](O)c3ccc(c(Cl)c3)Oc3cc2cc(c3O[C@@H]2O[C@H](CO)[C@@H](O)[C@H](O)[C@H]2O[C@H]2C[C@](C)(N)[C@H](O)[C@H](C)O2)Oc2ccc(cc2Cl)[C@H]1O` [Vancomycin, vancomycin], in test [1], inhibition of growth (MIC) required 1 mg/L (≈ 0.69 µM).

Take `CC(=O)Oc1cc(C(C)CCC=C(C)C)ccc1C` (centres unmarked) [acetylated single compound]: the antibacterial activity result in test [2] was “no antibacterial activity”.
